# Results published in US20260284011A1, “COMPOUNDS FOR RESTORING SUSCEPTIBILITY TO BETA-LACTAM ANTIBIOTICS” (UNIVERSITY OF NOTRE DAME DU LAC, priority 2023, published 2026).
# Like-named read-outs stand apart in the source and are kept apart here.
# How the values were obtained:
# MSSA and MRSA strains = experiment: MIC potentiation, groups of strains; type: cell-based, Staphylococcus aureus; details: all 40 tested strains
# Method: Potentiation of Activities of/36-Lactam Antibiotics. Compound 4 was evaluated as an adjuvant for β-lactam antibiotics, per design principles.
# MICs were determined by the microdilution broth method following the Clinical & Laboratory Standards Institute (CLSI) guidelines. […] Experiments were performed in triplicate in 96-well plates with 5×10^5 CFU·mL^−1 of bacteria. […] The MIC was the concentration for which bacterial growth was not observed.
# [1] = PK study, plasma and thighs; type: in vivo, mice; details: mouse; for Cmax at 4 h: sc, single subcutaneous dose 25 mg·kg^−1; for Cmax at 4 h / concentration at 8 h: mice
# Method: Pharmacokinetics of Compound 4 and In Vivo Efficacy. We next evaluated the pharmacokinetics (PK) of compound 4 and its distribution to the thighs (sites of infection in the disease model) after a single subcutaneous dose at 25 mg·kg^−1 to mice.
# Animals. Outbred 8-week-old female ICR mice for PK and neutropenic thigh infection studies were purchased from Envigo, Indianapolis, IN. The average weight of the mice for the PK study was 30 g (range 26.1 to 33.1 g); mice in the neutropenic thigh infection weights ranged from 24.2 to 37.7 g and were on average 29 g at the initiation of the study. Mice were housed in polycarbonate shoebox cages (for the PK study) or in disposable cages (for the infection studies) with ¼-inch corncob (The Andersons Inc., Maumee, OH) and Alpha-Dri (Shepherd Specialty Papers, Inc., Richland, MI) bedding with a 12-h light/dark cycle at 72° F. The animals were given food (Teklad 2918 irradiated extruded rodent diet) and water ad libitum. The food and water were autoclaved for the infection studies. All procedures were performed in accordance with and approved by the University of Notre Dame Institutional Animal Care and Use Committee.
# PK study. Mice (n=15) were given a single subcutaneous dose of compound 4 at 25 mg·kg^−1 (100 μL of 7.5 mg-mL-1 solution in 20% DMSO/20% Tween-80/60% sterilized water). At 0.5, 1, 2, 4, and 8 h, mice were euthanized. Terminal blood was collected by cardiac puncture into heparinized (sodium heparin, Sigma-Aldrich, St. Louis, MO) syringes, and centrifuged (20,000×g at 4° C. for 15 min) to obtain plasma. A 60-μL aliquot of plasma was mixed with 60 μL of a 10 μg·mL^−1 solution of internal standard in acetonitrile. After centrifugation (17,000×g for 10 min), a 60-μL of the supernatant was taken for ultraperformance liquid chromatography (UPLC) analysis with UV detection.
# Thighs were excised, weighed, and mixed with 100 μL of 10 μg·mL^−1 of internal standard in acetonitrile. Acetonitrile (900 μL) was added, and the mixture was homogenized on a Bullet blender (Next Advance, Inc., Averill Park, NY). After centrifugation at 17,000×g for 10 min, the supernatant was collected. The extraction was repeated two additional times. The combined supernatants were concentrated on a speed vac. The residue was dissolved in 100 μL of acetonitrile, and the mixture was centrifuged. A 60-μL aliquot of the supernatant was placed in an autosampler vial.
# Plasma and thigh samples were analyzed on a Waters Acquity UPLC (Waters Corp., Milford, MA) coupled with a diode array detector with UV detection at 320-330 nm. A C18 Atlantis™ T3 column 2.1 i.d.×100 mm length 3 μm-particle size column was used at a flow rate of 0.5 mL/min. The gradient consisted of 0.5-min from 80% A/20% B to 65% A/35% B, 4.5-min to 25% A/75% B, 0.5-min to 65% A/35% B, 2-min to 80% A/20% B, where A=0.1% formic acid in water and B=0.1% formic acid in acetonitrile. Internal standard and compound 4 eluted at 4.2 and 4.6 min, respectively.
# Calibration curves containing known concentrations of compound 4 (ranging from 0 to 200 μg·g^−1 tissue for thighs or 0 to 40 μg·mL^−1 for plasma) and internal standard in blank control thigh tissue or control plasma were prepared. Concentrations in the thighs and plasma were determined from the calibration curve regression parameters relative to internal standard.
# HFH29568 = experiment: Time-kill assay; type: cell-based, Staphylococcus aureus
# Method: Time-kill assay. MRSA strains (NRS21, NRS70, NRS382, NRS404, HFH 29568, and HFH 30495) were grown overnight on tryptic soy agar plate. Bacteria were diluted in Muller-Hinton broth containing 2% NaCl to […] CFU·mL^−1. […] For MEM and CPT, cation-adjusted Muller-Hinton broth without 2% NaCl was used. Aliquots were taken at 0, 3, 6, 9, 12, and 24 h and were diluted serially for bacterial counts. The assay was done in triplicate.
Compound,potentiation of the activity of MEM by 4 (MSSA and MRSA strains),"Tmax ([1]; plasma and thigh, plasma and thighs, 25 mg·kg^−1 sc, read-out: time at which maximum concentrations were achieved)","Cmax at 4 h ([1]; plasma, read-out: Maximum concentration in plasma)","concentration at 8 h ([1]; plasma, 25 mg·kg^−1 sc, read-out: concentration at 8 h in plasma)","Cmax at 4 h ([1]; thigh, read-out: Maximum concentration in thighs)","concentration at 8 h ([1]; thigh, 25 mg·kg^−1 sc, read-out: concentration at 8 h in thighs)","log10 decrease in bacterial growth (HFH29568; MEM by itself, at 6 h)",activity of MEM by itself (HFH29568; by 24 h)
"N#Cc1ccc2nc(SCB(O)O)n(Cc3ccc(C(F)(F)F)cc3C(F)(F)F)c2c1 [Compound 4, (((1-(2,4-bis(trifluoro-methyl)benzyl)-6-cyano-1H-benzo[d]imidazol-2-yl)thio)methyl)boronic acid]",lowering MICs to below resistant level,4 h,8500 ng/mL,3900 ng/mL,28000 ng/mL,20000 ng/mL,–,–
"C[C@@H](O)[C@H]1C(=O)N2C(C(=O)O)=C(S[C@@H]3CN[C@H](C(=O)N(C)C)C3)[C@H](C)[C@H]12 [MEM, meropenem]",–,–,–,–,–,–,2 log10,no activity
